Source: the supplement of paper PMC10307832

Experiments:
Assay in all cases: relative viability (nuclei count vs DMSO), 5 days (fraction); higher = more cells survive
[1] = compound: C1CN(CCC1C(C2=CC3=C(C=C2)OCO3)(C4=CC5=C(C=C4)OCO5)O)C(=O)OC6=CC=C(C=C6)[N+](=O)[O-] [JZL-184] + CC(C)C[C@H](NC(=O)[C@H](Cc1ccccc1)NC(=O)c1cnccn1)B(O)O [Bortezomib] (partner 0.002 µM)
Outline: (§1)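 Medians of duplicate plates are given as relative viability. That measure is the nuclei count in treated wells divided by the count in vehicle wells. Counts were taken on 4× images of lung cancer cell lines in 1536-well plates, 5 days after pin-tool dosing the day after seeding with one drug alone or a fixed anchor-drug dose plus five library-drug doses (not always all listed) in √10 steps.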

[2] = compound: C1CN(CCC1C(C2=CC3=C(C=C2)OCO3)(C4=CC5=C(C=C4)OCO5)O)C(=O)OC6=CC=C(C=C6)[N+](=O)[O-] [JZL-184] + CC1(C)CCC(c2ccc(Cl)cc2)=C(CN2CCN(c3ccc(C(=O)NS(=O)(=O)c4ccc(N[C@H](CCN5CCOCC5)CSc5ccccc5)c(S(=O)(=O)C(F)(F)F)c4)cc3)CC2)C1 [Navitoclax] (partner 0.5 µM)
Outline: as §1

[3] = compound: C1CN(CCC1C(C2=CC3=C(C=C2)OCO3)(C4=CC5=C(C=C4)OCO5)O)C(=O)OC6=CC=C(C=C6)[N+](=O)[O-] [JZL-184] + COc1cccc2cc(-c3nc([C@H]4CC[C@H](C(=O)O)CC4)n4ncnc(N)c34)[nH]c12 [OSI-027] (partner 0.5 µM)
Outline: as §1

[4] = compound: C1CN(CCC1C(C2=CC3=C(C=C2)OCO3)(C4=CC5=C(C=C4)OCO5)O)C(=O)OC6=CC=C(C=C6)[N+](=O)[O-] [JZL-184] + CS(=O)(=O)CCNCc1ccc(-c2ccc3ncnc(Nc4ccc(OCc5cccc(F)c5)c(Cl)c4)c3c2)o1 [Lapatinib] (partner 2 µM)
Outline: as §1

[5] = compound: C1CN(CCC1C(C2=CC3=C(C=C2)OCO3)(C4=CC5=C(C=C4)OCO5)O)C(=O)OC6=CC=C(C=C6)[N+](=O)[O-] [JZL-184] + CS(=O)(=O)N1CCN(Cc2cc3nc(-c4cccc5[nH]ncc45)nc(N4CCOCC4)c3s2)CC1 [Pictilisib] (partner 1 µM)
Outline: as §1

Row | Cell Line | relative viability ([1]; first compound 0.04 µM) | relative viability ([1]; first compound 0.4 µM) | relative viability ([1]; first compound 1.265 µM) | relative viability ([1]; first compound 4 µM) | relative viability ([2]; first compound 0.04 µM) | relative viability ([2]; first compound 0.4 µM) | relative viability ([2]; first compound 1.265 µM) | relative viability ([2]; first compound 4 µM) | relative viability ([3]; first compound 0.04 µM) | relative viability ([3]; first compound 0.4 µM) | relative viability ([3]; first compound 1.265 µM) | relative viability ([3]; first compound 4 µM) | relative viability ([4]; first compound 0.04 µM) | relative viability ([4]; first compound 0.4 µM) | relative viability ([4]; first compound 1.265 µM) | relative viability ([4]; first compound 4 µM) | relative viability ([5]; first compound 0.04 µM) | relative viability ([5]; first compound 0.4 µM) | relative viability ([5]; first compound 1.265 µM) | relative viability ([5]; first compound 4 µM)
1 | NCI-H1755 | 1.13 | 0.895 | 0.933 | 0.859 | 1.01 | 0.954 | 1.01 | 0.918 | 0.672 | 0.699 | 0.709 | 0.745 | 1.02 | 1.01 | 1.07 | 0.962 | 0.432 | 0.339 | 0.545 | 0.401
2 | NCI-H1792 | 1.13 | 0.405 | 0.954 | 0.952 | 0.889 | 0.624 | 0.675 | 0.612 | 0.683 | 0.744 | 0.779 | 0.62 | 0.974 | 0.858 | 0.926 | 0.96 | 0.304 | 0.232 | 0.302 | 0.28
3 | NCI-H2087 | 0.901 | 0.811 | 0.845 | 0.771 | 1 | 0.997 | 1.18 | 0.996 | 0.519 | 0.514 | 0.579 | 0.436 | 1.29 | 0.824 | 0.99 | 1.18 | 0.824 | 0.677 | 0.934 | 1
4 | H3255 | 0.954 | 0.708 | 1.01 | 0.75 | 0.589 | 0.492 | 0.678 | 0.522 | 0.563 | 0.52 | 0.557 | 0.589 | 0.234 | 0.267 | 0.261 | 0.321 | 0.524 | 0.454 | 0.526 | 0.49
5 | NCI-H23 | 1.24 | 0.765 | 1.21 | 1.07 | 1.01 | 0.63 | 0.837 | 0.777 | 0.529 | 0.538 | 0.656 | 0.65 | 1.39 | 0.969 | 1.26 | 1.07 | 0.561 | 0.432 | 0.538 | 0.492
6 | HCC-827 | 1.11 | 0.911 | 1.07 | 1.02 | 1.04 | 1.01 | 1.02 | 0.981 | 0.954 | 0.769 | 0.798 | 0.707 | 0.228 | 0.196 | 0.234 | 0.221 | 0.915 | 0.908 | 1.01 | 1.06
7 | HCC-78 | 0.384 | 0.521 | 0.667 | 0.516 | 0.709 | 0.75 | 0.724 | 0.551 | 0.348 | 0.326 | 0.379 | 0.382 | 0.634 | 0.787 | 0.755 | 0.302 | 0.204 | 0.188 | 0.248 | 0.2
8 | UMC-11 | 0.79 | 0.723 | 0.571 | 0.673 | 0.349 | 0.318 | 0.349 | 0.302 | 0.612 | 0.461 | 0.499 | 0.457 | 1.26 | 0.898 | 1.05 | 0.947 | 1.16 | 0.808 | 0.984 | 0.824
9 | NCI-H1975 | 0.361 | 0.419 | 0.358 | 0.336 | 1.3 | 0.967 | 1.2 | 1.05 | 0.842 | 0.759 | 0.764 | 0.654 | 1.08 | 0.824 | 1.02 | 0.888 | 0.347 | 0.281 | 0.304 | 0.287
10 | COR-L23 | 1.2 | 0.915 | 0.979 | 0.91 | 1.13 | 0.87 | 1.05 | 0.968 | 0.964 | 0.783 | 0.806 | 0.64 | 1.26 | 0.818 | 0.889 | 0.823 | 0.945 | 0.775 | 0.842 | 0.757
11 | CAL-12T | 1.15 | 0.942 | 1.18 | 1.08 | 1.33 | 1.1 | 1.15 | 1.15 | 0.897 | 0.648 | 0.673 | 0.614 | 0.701 | 0.529 | 0.789 | 0.593 | 0.415 | 0.263 | 0.686 | 0.422
12 | SW 1573 | 1.14 | 0.935 | 1.08 | 0.976 | 0.913 | 0.912 | 1.21 | 1.16 | 0.733 | 0.548 | 0.591 | 0.525 | 1.25 | 1.15 | 1.25 | 1.01 | 0.609 | 0.364 | 0.491 | 0.498
13 | NCI-H2126 | 1.13 | 1.09 | 1.09 | 1.15 | 0.847 | 0.807 | 0.897 | 0.873 | 0.636 | 0.64 | 0.804 | 0.683 | 0.755 | 0.779 | 0.768 | 0.764 | 0.498 | 0.499 | 0.514 | 0.5
